Experimental data reported in PubChem BioAssay AID248 (DTP/NCI, 2004).
Where “and” joins values, the source holds several entries; their conditions need not be identical. Equal values may be shown once. Inconclusive results and toxic doses are left out. Rule as the data show it: active = T/C of 150% or more; inactive = T/C below 125%.

Test system: L1210 leukemia ip in BDF1 mice, survival T/C
Assay: NCI In Vivo Anticancer Drug Screen. Data for tumor model L1210 Leukemia (intraperitoneal) in B6D2F1 (BDF1) mice
Conditions: endpoint: mean survival time, higher = longer survival
Summary of the method: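 Value reflects the ratio of survival in compound-treated mice to survival in vehicle-treated controls, with both groups carrying the same transplanted tumor.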

[1] = dose: 100.0 mg/kg/injection, schedule: Q04DX003 (ip), vehicle: saline with Tween-80
[2] = dose: 200.0 mg/kg/injection, schedule: Q04DX003 (ip), vehicle: saline with Tween-80
[3] = dose: 100.0 mg/kg/injection, schedule: Q04DX002 (ip), vehicle: Klucel (hydroxypropylcellulose) (HPC)
[4] = dose: 200.0 mg/kg/injection, schedule: Q04DX002 (ip), vehicle: Klucel (hydroxypropylcellulose) (HPC)
[5] = dose: 400.0 mg/kg/injection, schedule: Q04DX002 (ip), vehicle: Klucel (hydroxypropylcellulose) (HPC)
[6] = dose: 100.0 mg/kg/injection, schedule: Q01DX009 (ip), vehicle: saline with Tween-80
[7] = dose: 200.0 mg/kg/injection, schedule: Q01DX009 (ip), vehicle: saline with Tween-80
[8] = dose: 400.0 mg/kg/injection, schedule: Q01DX009 (ip), vehicle: saline with Tween-80
[9] = dose: 400.0 mg/kg/injection, schedule: Q04DX003 (ip), vehicle: saline with Tween-80
[10] = dose: 100.0 mg/kg/injection, schedule: Q01DX001 (ip), vehicle: other
[11] = dose: 100.0 mg/kg/injection, schedule: Q04DX003 (ip), vehicle: other
[12] = dose: 200.0 mg/kg/injection, schedule: Q01DX001 (ip), vehicle: other
[13] = dose: 200.0 mg/kg/injection, schedule: Q04DX003 (ip), vehicle: other
[14] = dose: 400.0 mg/kg/injection, schedule: Q01DX001 (ip), vehicle: other
[15] = dose: 50.0 mg/kg/injection, schedule: Q04DX003 (ip), vehicle: other
[16] = dose: 25.0 mg/kg/injection, schedule: Q01DX009 (ip), vehicle: Klucel (hydroxypropylcellulose) (HPC)
[17] = dose: 50.0 mg/kg/injection, schedule: Q01DX009 (ip), vehicle: Klucel (hydroxypropylcellulose) (HPC)
[18] = dose: 100.0 mg/kg/injection, schedule: Q04DX003 (ip), vehicle: Klucel (hydroxypropylcellulose) (HPC)
[19] = dose: 200.0 mg/kg/injection, schedule: Q04DX003 (ip), vehicle: Klucel (hydroxypropylcellulose) (HPC)
[20] = dose: 400.0 mg/kg/injection, schedule: Q04DX003 (ip), vehicle: Klucel (hydroxypropylcellulose) (HPC)
[21] = dose: 100.0 mg/kg/injection, schedule: Q01DX009 (ip), vehicle: Klucel (hydroxypropylcellulose) (HPC)
[22] = dose: 100.0 mg/kg/injection, schedule: Q04DX003 (ip), vehicle: saline
[23] = dose: 200.0 mg/kg/injection, schedule: Q04DX003 (ip), vehicle: saline
[24] = dose: 400.0 mg/kg/injection, schedule: Q04DX003 (ip), vehicle: saline
[25] = dose: 200.0 mg/kg/injection, schedule: Q01DX009 (ip), vehicle: Klucel (hydroxypropylcellulose) (HPC)
[26] = dose: 400.0 mg/kg/injection, schedule: Q01DX009 (ip), vehicle: Klucel (hydroxypropylcellulose) (HPC)

Measured: T/C

Cc1cc(I)ccc1NC(=S)Nc1ccccc1F
inactive: [1] 93 % of control | [2] 105 % of control

CCOC(=O)CNc1ccc(C(F)(F)F)cc1
inactive: [3] 104 % of control | [4] 104 % of control | [5] 97 % of control

COc1cc(C=O)ccc1OC(=O)Nc1cc(Cl)ccc1C
inactive: dose: 100.0 mg/kg/injection, schedule: Q01DX001 (ip), vehicle: saline with Tween-80 92 % of control | [6] 94 % of control and 97 % of control | dose: 100.0 mg/kg/injection, schedule: Q04DX002 (ip), vehicle: saline with Tween-80 95 % of control and 88 % of control | [1] 97 % of control | dose: 200.0 mg/kg/injection, schedule: Q01DX001 (ip), vehicle: saline with Tween-80 88 % of control | [7] 106 % of control and 115 % of control | dose: 200.0 mg/kg/injection, schedule: Q04DX002 (ip), vehicle: saline with Tween-80 95 % of control and 98 % of control | [2] 95 % of control | dose: 400.0 mg/kg/injection, schedule: Q01DX001 (ip), vehicle: saline with Tween-80 97 % of control | [8] 105 % of control and 90 % of control | dose: 400.0 mg/kg/injection, schedule: Q04DX002 (ip), vehicle: saline with Tween-80 90 % of control and 91 % of control | [9] 103 % of control

CC(C)CNC(=O)Nc1ccccc1C(F)(F)F
inactive: [1] 95 % of control | [2] 97 % of control | [9] 97 % of control

CNS(=O)(=O)c1ccc(NC(=O)CCl)cc1
inactive: dose: 50.0 mg/kg/injection, schedule: Q01DX009 (ip), vehicle: saline with Tween-80 104 % of control | [10] 104 % of control | [6] 110 % of control | [11] 101 % of control | [12] 103 % of control | [7] 119 % of control | [13] 98 % of control | [14] 100 % of control

COC(=O)/C=C/Sc1ccccc1C(=O)OC
inactive: [15] 104 % of control | [11] 87 % of control | [13] 95 % of control

CCOc1nn2nnnc2c2ccccc12
inactive: dose: 37.5 mg/kg/injection, schedule: Q04DX003 (ip), vehicle: saline with Tween-80 97 % of control | dose: 75.0 mg/kg/injection, schedule: Q04DX003 (ip), vehicle: saline with Tween-80 97 % of control | dose: 150.0 mg/kg/injection, schedule: Q04DX003 (ip), vehicle: saline with Tween-80 103 % of control

O=[N+]([O-])c1cc(S(=O)(=O)Oc2ccccc2)ccc1Cl
inactive: dose: 12.5 mg/kg/injection, schedule: Q01DX009 (ip), vehicle: Klucel (hydroxypropylcellulose) (HPC) 105 % of control | [16] 105 % of control | dose: 50.0 mg/kg/injection, schedule: Q01DX001 (ip), vehicle: carboxymethylcellulose (CMC) 116 % of control | [17] 100 % of control | dose: 100.0 mg/kg/injection, schedule: Q01DX001 (ip), vehicle: carboxymethylcellulose (CMC) 100 % of control | [18] 98 % of control | dose: 200.0 mg/kg/injection, schedule: Q01DX001 (ip), vehicle: carboxymethylcellulose (CMC) 100 % of control | [19] 103 % of control | dose: 400.0 mg/kg/injection, schedule: Q01DX001 (ip), vehicle: carboxymethylcellulose (CMC) 105 % of control | [20] 89 % of control

c1ccc2sc(SCSc3nc4ccccc4s3)nc2c1
inactive: dose: 50.0 mg/kg/injection, schedule: Q04DX003 (ip), vehicle: saline with Tween-80 93 % of control | [1] 90 % of control | [2] 100 % of control

CC[n+]1ccc(/C=C\c2cccc([N+](=O)[O-])c2)cc1
inactive: [16] 91 % of control | [17] 91 % of control | [21] 98 % of control | [18] 93 % of control

CCCCCCCCCCCCCCCCCCNC(=O)c1c(Br)c(Br)cc(Br)c1C(=O)O
inactive: dose: 25.0 mg/kg/injection, schedule: Q04DX002 (ip), vehicle: Klucel (hydroxypropylcellulose) (HPC) 104 % of control | dose: 50.0 mg/kg/injection, schedule: Q04DX002 (ip), vehicle: Klucel (hydroxypropylcellulose) (HPC) 93 % of control | [3] 96 % of control | [4] 98 % of control and 87 % of control | [5] 90 % of control

CC(F)C(Br)C(=O)O (configuration not stated)
inactive: dose: 100.0 mg/kg/injection, schedule: Q04DX002 (ip), vehicle: saline 90 % of control | dose: 200.0 mg/kg/injection, schedule: Q04DX002 (ip), vehicle: saline 90 % of control

S=P(NC1CCCCC1)(N1CC1)N1CC1
inactive: dose: 5.0 mg/kg/injection, schedule: Q01DX Z (ip), vehicle: carboxymethylcellulose (CMC) 122 % of control | dose: 20.0 mg/kg/injection, schedule: Q01DX Z (ip), vehicle: carboxymethylcellulose (CMC) 101 % of control

C/C=C/C=N/Nc1ccccc1
inactive: [15] 87 % of control | [10] 97 % of control | [11] 92 % of control | [12] 90 % of control | [13] 93 % of control

CCCCCCCCCC(=O)CCCC
inactive: [6] 122 % of control | [22] 94 % of control | [7] 96 % of control | [23] 98 % of control | [8] 104 % of control | [24] 94 % of control

Nc1nc2c(ncn2-c2ccc(NS(=O)(=O)c3cccc(S(=O)(=O)F)c3)cc2)c(=O)[nH]1
inactive: dose: 75.0 mg/kg/injection, schedule: Q01DX001 (ip), vehicle: Klucel (hydroxypropylcellulose) (HPC) 97 % of control | dose: 300.0 mg/kg/injection, schedule: Q01DX001 (ip), vehicle: Klucel (hydroxypropylcellulose) (HPC) 88 % of control

NC(=NCCO)C(N)=NCCO
inactive: dose: 100.0 mg/kg/injection, schedule: Q01DX009 (ip), vehicle: saline 102 % of control | [22] 96 % of control | dose: 200.0 mg/kg/injection, schedule: Q01DX009 (ip), vehicle: saline 94 % of control | [23] 96 % of control | dose: 400.0 mg/kg/injection, schedule: Q01DX009 (ip), vehicle: saline 94 % of control | [24] 100 % of control

O=C(Nc1ccccc1F)Oc1ccc(OCc2ccccc2)cc1
inactive: [21] 101 % of control | [25] 101 % of control | [26] 101 % of control

CC(C)CCC(O)c1c[nH]c(=O)[nH]c1=O (configuration not stated)
inactive: [18] 105 % of control | [19] 105 % of control | [20] 94 % of control

CC1=CC(O)C(C(C)C)C1 (configuration not stated)
inactive: [10] 102 % of control | [12] 98 % of control | [14] 98 % of control

CC(C)(C)c1ccc(C(c2ccc(C(C)(C)C)cc2)C(Cl)Cl)cc1
inactive: [18] 113 % of control | [19] 96 % of control | [20] 97 % of control

COC(=O)c1ccc(C(=O)O)nc1
inactive: [21] 104 % of control | [25] 94 % of control | [26] 102 % of control

CC(=O)c1cc(CN(CCCl)CCCl)c(O)c(CN(CCCl)CCCl)c1O
inactive: dose: 3.1 mg/kg/injection, schedule: Q01DX009 (ip), vehicle: Klucel (hydroxypropylcellulose) (HPC) 111 % of control | dose: 5.5 mg/kg/injection, schedule: Q01DX009 (ip), vehicle: Klucel (hydroxypropylcellulose) (HPC) 114 % of control | dose: 6.2 mg/kg/injection, schedule: Q01DX009 (ip), vehicle: Klucel (hydroxypropylcellulose) (HPC) 111 % of control | dose: 8.3 mg/kg/injection, schedule: Q01DX009 (ip), vehicle: Klucel (hydroxypropylcellulose) (HPC) 120 % of control | dose: 15.0 mg/kg/injection, schedule: Q01DX001 (ip), vehicle: carboxymethylcellulose (CMC) 122 % of control | dose: 23.0 mg/kg/injection, schedule: Q01DX001 (ip), vehicle: carboxymethylcellulose (CMC) 122 % of control | dose: 30.0 mg/kg/injection, schedule: Q01DX009 (ip), vehicle: carboxymethylcellulose (CMC) 108 % of control | dose: 53.0 mg/kg/injection, schedule: Q01DX001 (ip), vehicle: carboxymethylcellulose (CMC) 122 % of control
